This note sets out measurements from patent US9834558B2, “Substituted bridged urea analogs as sirtuin modulators” (GLAXOSMITHKLINE LLC, priority 2013, dated 2017).

The target in the assay is T1, SIRT1 (Homo sapiens, UniProt Q96EB6).
T1 sequence (Q96EB6 1-747): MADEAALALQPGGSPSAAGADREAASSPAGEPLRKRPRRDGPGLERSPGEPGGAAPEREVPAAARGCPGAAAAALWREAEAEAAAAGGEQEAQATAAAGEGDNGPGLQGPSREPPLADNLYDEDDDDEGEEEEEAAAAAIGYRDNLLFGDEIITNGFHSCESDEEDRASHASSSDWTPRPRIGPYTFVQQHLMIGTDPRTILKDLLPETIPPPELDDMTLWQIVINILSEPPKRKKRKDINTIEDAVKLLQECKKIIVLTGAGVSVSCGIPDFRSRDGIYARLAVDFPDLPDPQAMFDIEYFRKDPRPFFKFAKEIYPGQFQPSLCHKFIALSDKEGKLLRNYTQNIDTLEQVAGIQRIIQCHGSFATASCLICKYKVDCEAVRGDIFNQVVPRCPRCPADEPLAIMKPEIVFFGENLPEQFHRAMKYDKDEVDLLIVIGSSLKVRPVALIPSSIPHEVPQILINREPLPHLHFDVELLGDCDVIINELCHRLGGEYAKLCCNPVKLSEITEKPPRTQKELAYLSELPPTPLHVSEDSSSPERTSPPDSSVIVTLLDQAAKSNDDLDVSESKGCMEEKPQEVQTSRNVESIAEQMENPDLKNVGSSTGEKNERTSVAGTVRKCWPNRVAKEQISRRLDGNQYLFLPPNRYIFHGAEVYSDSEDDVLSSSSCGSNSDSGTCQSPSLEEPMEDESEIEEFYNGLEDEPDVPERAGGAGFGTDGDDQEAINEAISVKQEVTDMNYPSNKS
Description: Trp mass spectrometry assay of SIRT1 activation. The class given is biochemical. The settings on record: for TRP Activity (EC1.5) / Emax: Trp peptide assay; for TRP Activity (EC1.5): EC1.5 = concentration that results in 150% activation of SIRT1; for Emax: maximum activity relative to control (100%), read-out: TRP MAX RESP (percent maximum fold activation). The gist of the method: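 Activation read-out: mass-spec measurement of O-acetyl-ADP-ribose or deacetylated Trp peptide versus compound-free controls, giving EC1.5 and Percent Maximum Activation. Reactions ran 25 min at 25 °C, pH 7.5, with 120 μM βNAD+, 0.5 μM acetylated p53-derived peptide and 10 nM His-tagged SIRT1.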

Setting [1] is: Trp mass spectrometry assay, concentration of test compound giving 150% activation of SIRT1.
Where [2] appears, read: concentration giving 150% activation of SIRT1, Trp peptide substrate.
The mark [3] stands for this setting: Trp mass spectrometry assay, EC1.5 = concentration of test compound that results in 150% activation of SIRT1.

Counter-ions that a name gives are not always drawn.

For the molecule `Cn1ccc(-c2ccc3c(n2)N(C(=O)Nc2cccnc2)[C@H]2CCN3C2)cc1=O` [(9S)-5-(1-methyl-2-oxo-1,2-dihydropyridin-4-yl)-N-(pyridin-3-yl)-1,6,8-triazatricyclo[7.2.1.0 {2,7}]dodeca-2(7),3,5-triene-8-carboxamide], the “TRP Activity (EC1.5)” value is “B (B (EC1.5 1-25 μM))” and the Emax was over 150%.

Turning to `O=C(Nc1cnccn1)N1c2nc(N3CCC(C(F)(F)F)CC3)ccc2N2CC[C@H]1C2` [(9S)-N-(pyrazin-2-yl)-5-[4-(trifluoromethyl)piperidin-1-yl]-1,6,8-triazatricyclo[7.2.1.0 {2,7}]dodeca-2(7),3,5-triene-8-carboxamide], the “TRP Activity (EC1.5)” value is “A (A (EC1.5<1 μM))” and the Emax was over 150%.

With `NC(=O)c1cncc(-c2ccc3c(n2)N(C(=O)Nc2ccccn2)[C@H]2CCN3C2)c1` [Example 371], under setting [1], the “Tryp AVG EC1.5 (μM)” value is “B (B (EC1.5 1-25 μM))”.

Regarding `CN(C)c1cccc(-c2ccc3c(n2)N(C(=O)Nc2cnccn2)[C@H]2CCCN3C2)c1` [Example 403], the “Tryp AVG EC1.5 (μM)” value under setting [1] is given as “A (A (EC1.5<1 μM))”.

In the case of `CS(=O)(=O)c1cccc(-c2ccc3c(n2)N(C(=O)Nc2cncc(-c4cnco4)c2)[C@H]2CCN3C2)c1` [Example 724], the “Tryp AVG EC1.5 (μM)” value under setting [2] is recorded as “A (A (EC1.5<1 μM))”.

Regarding `Cc1cc(-c2ccc3c(n2)N(C(=O)Nc2ccncn2)[C@H]2CCCN3C2)ccn1` [(9S)-5-(2-methylpyridin-4-yl)-N-(pyrimidin-4-yl)-1,6,8-triazatricyclo[7.3.1.0 {2,7}]trideca-2(7),3,5-triene-8-carboxamide], the “TRP Activity (EC1.5)” value was “A (A (EC1.5<1 μM))” and the Emax is over 150%.

Take `O=C(Nc1cncc(F)c1)N1c2nc(-c3cccc(Cl)c3)ccc2N2CCC1CC2` [Example 521]: under setting [3], the “Tryp AVG EC1.5 (μM)” value is given as “B (B (EC1.5 1-25 μM))”.

Consider `Cn1cc(-c2ccc3c(n2)N(C(=O)Nc2ccccn2)[C@H]2CCN3C2)cn1` [Example 349], for which the “Tryp AVG EC1.5 (μM)” value under setting [1] is on record as “B (B (EC1.5 1-25 μM))”.

With `O=C(Nc1cccc(-c2cccnc2)n1)N1c2nc(-c3cccc(C(F)(F)F)c3)ccc2N2CC[C@H]1C2` [Example 655], the “Tryp AVG EC1.5 (μM)” value under setting [2] was “A (A (EC1.5<1 μM))”.

For the molecule `Cc1ccc(-c2ccc3c(n2)N(C(=O)Nc2ccccn2)[C@H]2CCCN3C2)cn1` [Example 465], the “Tryp AVG EC1.5 (μM)” value under setting [3] is recorded as “B (B (EC1.5 1-25 μM))”.

Consider `Cc1cc(-c2ccc3c(n2)N(C(=O)Nc2cnccn2)[C@H]2CCN3C2)cc(C(F)(F)F)n1` [(9S)-5-[2-methyl-6-(trifluoromethyl)pyridin-4-yl]-N-(pyrazin-2-yl)-1,6,8-triazatricyclo[7.2.1.0 {2,7}]dodeca-2(7),3,5-triene-8-carboxamide], for which the “TRP Activity (EC1.5)” value was “A (A (EC1.5<1 μM))” and the Emax is over 150%.

In the case of `O=C(Nc1cncnc1)N1c2nc(-c3cncc(C(F)(F)F)c3)ccc2N2CCC[C@H]1C2` [(9S)-N-(pyrimidin-5-yl)-5-[5-(trifluoromethyl)pyridin-3-yl]-1,6,8-triazatricyclo[7.3.1.0 {2,7}]trideca-2(7),3,5-triene-8-carboxamide], the “TRP Activity (EC1.5)” value is given as “A (A (EC1.5<1 μM))” and the Emax was over 150%.

With `O=C(Nc1nncs1)N1c2nc(-c3cccc(C(F)(F)F)c3)ccc2N2CC[C@H]1C2` [Example 646], the “Tryp AVG EC1.5 (μM)” value under setting [2] is “A (A (EC1.5<1 μM))”.

In the case of `COCC(C)NC(=O)c1ccc2c(n1)N(C(=O)Nc1ccccn1)[C@H]1CCN2C1` (stereo partly drawn) [(9S)-5-N-(1-methoxypropan-2-yl)-8-N-(pyridin-2-yl)-1,6,8-triazatricyclo[7.2.1.0^{2,7}]dodeca-2(7),3,5-triene-5,8-dicarboxamide], the “TRP Activity (EC1.5)” value was “B (B (EC1.5 1-25 μM))” and the Emax was over 150%.

In the case of `O=C(Nc1cncc(F)c1)N1c2nc(-c3cncc(F)c3)ccc2N2CCC1CC2` [Example 571], the “Tryp AVG EC1.5 (μM)” value under setting [3] is “B (B (EC1.5 1-25 μM))”.

Take `CC(C)(C)OC(=O)N1CCCN(c2ccc3c(n2)N(C(=O)Nc2ccncn2)[C@H]2CCCN3C2)CC1` [Example 382]: under setting [1], the “Tryp AVG EC1.5 (μM)” value was “C (C (EC1.5>25 μM))”.

With `O=C(Nc1cnccn1)N1c2nc(-c3cccc(Cl)c3)ccc2N2C[C@@H](O)[C@H]1C2` [Example 678], the “Tryp AVG EC1.5 (μM)” value under setting [2] is recorded as “C (C (EC1.5>25 μM))”.

Regarding `Cc1cc(-c2ccc3c(n2)N(C(=O)Nc2cncc(C)n2)[C@H]2CCN3C2)ccn1` [Example 503], under setting [3], the “Tryp AVG EC1.5 (μM)” value was “A (A (EC1.5<1 μM))”.

Turning to `N#Cc1cccc(-c2ccc3c(n2)N(C(=O)Nc2ccncn2)[C@H]2CCCN3C2)c1` [Example 352], under setting [1], the “Tryp AVG EC1.5 (μM)” value was “A (A (EC1.5<1 μM))”.

Regarding `Cc1cc(-c2ccc3c(n2)N(C(=O)N2CCN(C)CC2)[C@H]2CCN3C2)ccn1` [(9S)-8-[(4-methylpiperazin-1-yl)carbonyl]-5-(2-methylpyridin-4-yl)-1,6,8-triazatricyclo[7.2.1.0 {2,7}]dodeca-2,4,6-triene], the “TRP Activity (EC1.5)” value is “C (C (EC1.5>25 μM))” and the Emax was under 150%.

For the molecule `CC(=O)N1CCC(c2cccc(NC(=O)N3c4nc(-c5cccc(C(F)(F)F)c5)ccc4N4CC[C@H]3C4)c2)C1` (stereo partly shown) [Example 635], the “Tryp AVG EC1.5 (μM)” value under setting [2] is “A (A (EC1.5<1 μM))”.

`O=C(Nc1cc(-c2cnco2)ccn1)N1c2nc(-c3cccc(Cl)c3)ccc2N2C[C@@H](O)[C@H]1C2` [Example 685]: under setting [2], the “Tryp AVG EC1.5 (μM)” value is listed as “B (B (EC1.5 1-25 μM))”.

Take `O=C(NCc1ncc(-c2cccc(NC(=O)N3c4nc(-c5cccc(C(F)(F)F)c5)ccc4N4CC[C@H]3C4)c2)o1)OCc1ccccc1` [Example 706]: the “Tryp AVG EC1.5 (μM)” value under setting [2] was “A (A (EC1.5<1 μM))”.

With `O=C(O)c1cc(-c2ccc3c(n2)N(C(=O)Nc2cnccn2)[C@H]2CCN3C2)ccn1` [4-[(9S)-8-[(pyrazin-2-yl)carbamoyl]-1,6,8-triazatricyclo[7.2.1.0 {2,7}]dodeca-2(7),3,5-trien-5-yl]pyridine-2-carboxylic acid], the “TRP Activity (EC1.5)” value is on record as “C (C (EC1.5>25 μM))” and the Emax is under 150%.

Regarding `O=C(Nc1ccncc1)N1c2nc(N3CCCC(C(F)(F)F)C3)ccc2N2CCC[C@H]1C2` (stereo partly shown) [Example 360], under setting [1], the “Tryp AVG EC1.5 (μM)” value was “A (A (EC1.5<1 μM))”.

For `O=C(Nc1cnccn1)N1c2nc(-c3cccc(Cl)c3)ccc2N2CC[C@H]1C2` [Example 101], the “Tryp AVG EC1.5 (μM)” value (Trp peptide substrate, concentration giving 150% activation of SIRT1) is on record as “A (A (EC1.5<1 μM))”.

For the molecule `O=C(Nc1ccncn1)N1c2nc(-c3cncc(C(F)(F)F)c3)ccc2N2CCC[C@H]1C2` [Example 393], under setting [1], the “Tryp AVG EC1.5 (μM)” value is reported as “A (A (EC1.5<1 μM))”.

On to `Cc1cc(-c2ccc3c(n2)N(C(=O)NCCc2ccccn2)[C@H]2CCN3C2)ccn1` [(9S)-5-(2-methylpyridin-4-yl)-N-[2-(pyridin-2-yl)ethyl]-1,6,8-triazatricyclo[7.2.1.0 {2,7}]dodeca-2(7),3,5-triene-8-carboxamide hydrochloride], for which the “TRP Activity (EC1.5)” value is “C (C (EC1.5>25 μM))” and the Emax was under 150%.

In the case of `N=C(N)NCc1ncc(-c2cccc(NC(=O)N3c4nc(-c5cccc(C(F)(F)F)c5)ccc4N4CC[C@H]3C4)c2)o1` [Example 776], the “Tryp AVG EC1.5 (μM)” value under setting [2] is “A (A (EC1.5<1 μM))”.

Take `O=C(Nc1ccccn1)N1c2nc(N3CCC(C(F)(F)F)CC3)ccc2N2CC[C@H]1C2` [(9S)-N-(pyridin-2-yl)-5-[4-(trifluoromethyl)piperidin-1-yl]-1,6,8-triazatricyclo[7.2.1.0 {2,7}]dodeca-2,4,6-triene-8-carboxamide]: the “TRP Activity (EC1.5)” value is recorded as “A (A (EC1.5<1 μM))” and the Emax is over 150%.
